For orientation: IC50 means the concentration that gives 50% inhibition. As a reminder, the half-life is the time in which the quantity being followed falls by half. For orientation: Papp A→B means how fast a substance crosses the layer from the apical side. The term melting point denotes the temperature of the solid-liquid transition.

Entries after “also recorded” stand apart in the source; their conditions may differ. Marks after values point to notes of the source that are not given here.

Consider six compounds from publication PMC3510433, “Adamantyl carboxamides and acetamides as potent human 11β-hydroxysteroid dehydrogenase type 1 inhibitors” (Bioorganic & Medicinal Chemistry, 2012).

Series [1] deals with human cytochrome P450 2C19 (Homo sapiens, UniProt P33261). The series is described as follows: Inhibition of human cytochrome P450 2C19. The series is classed as in vitro ADME. The conditions noted are these: for Percentage inhibition of 2C19: 10 μM; for IC50: mean value of two measurements. The text has this:
(§1) To identify potential problems with these compounds interfering with the metabolism of other drugs, compounds 3, 4, 15 and 41 were studied for their inhibition of the key human cytochrome P450 enzymes: 1A2, 2C9, 2C19, 2D6, 3A4-BFC (7-benzyloxy-4-(trifluoromethyl)coumarin) and 3A4-BQ (7-benzyloxyquinoline) (Table 6).

In series [2] the target is human cytochrome P450 2C9 (Homo sapiens, UniProt P11712). Description: Inhibition of human cytochrome P450 2C9. The series is classed as in vitro ADME. The note with it: for Percentage inhibition of 2C9: 10 μM; for IC50: mean value of two measurements.
Sequence of human cytochrome P450 2C9 (P11712 whole entry): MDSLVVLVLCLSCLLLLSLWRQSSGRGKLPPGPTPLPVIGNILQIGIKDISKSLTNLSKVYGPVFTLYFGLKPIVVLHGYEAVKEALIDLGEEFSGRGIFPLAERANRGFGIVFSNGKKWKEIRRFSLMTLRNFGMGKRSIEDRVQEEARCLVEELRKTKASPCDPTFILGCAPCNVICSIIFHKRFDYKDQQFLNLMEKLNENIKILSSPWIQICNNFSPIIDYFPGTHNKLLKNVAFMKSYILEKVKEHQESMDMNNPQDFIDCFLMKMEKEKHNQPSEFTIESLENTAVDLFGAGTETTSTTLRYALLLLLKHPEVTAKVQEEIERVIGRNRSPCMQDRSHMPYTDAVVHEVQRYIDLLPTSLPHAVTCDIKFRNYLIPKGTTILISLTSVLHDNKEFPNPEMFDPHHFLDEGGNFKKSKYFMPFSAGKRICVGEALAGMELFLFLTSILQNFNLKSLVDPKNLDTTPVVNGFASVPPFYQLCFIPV
From the text: as §1

The target in series [3] is human cytochrome P450 3A4-BFC (Homo sapiens, UniProt P08684). The series is described as follows: Inhibition of human cytochrome P450 3A4-BFC (7-benzyloxy-4-(trifluoromethyl)coumarin). The series is classed as in vitro ADME. The conditions noted are these: mean value of two measurements.
Sequence of human cytochrome P450 3A4-BFC (P08684 whole entry): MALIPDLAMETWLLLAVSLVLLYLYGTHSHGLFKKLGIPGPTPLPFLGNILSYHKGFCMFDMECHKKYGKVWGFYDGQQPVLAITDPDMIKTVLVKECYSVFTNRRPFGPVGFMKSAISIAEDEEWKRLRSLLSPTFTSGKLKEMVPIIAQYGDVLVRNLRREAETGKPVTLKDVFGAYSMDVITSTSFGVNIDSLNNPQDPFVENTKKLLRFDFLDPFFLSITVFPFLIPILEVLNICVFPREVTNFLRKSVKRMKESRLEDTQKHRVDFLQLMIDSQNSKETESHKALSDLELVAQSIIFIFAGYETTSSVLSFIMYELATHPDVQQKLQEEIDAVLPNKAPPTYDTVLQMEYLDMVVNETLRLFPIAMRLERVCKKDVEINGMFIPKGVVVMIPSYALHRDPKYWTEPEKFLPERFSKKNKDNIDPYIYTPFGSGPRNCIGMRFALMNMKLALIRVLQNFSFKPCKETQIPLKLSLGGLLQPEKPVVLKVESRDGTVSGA
From the text: as §1

The target in series [4] is human cytochrome P450 2D6 (Homo sapiens, UniProt P10635). Description: Inhibition of human cytochrome P450 2D6. Format: in vitro ADME. The conditions noted are these: for Percentage inhibition of 2D6: 10 μM; for IC50: mean value of two measurements.
Sequence of human cytochrome P450 2D6 (P10635 whole entry): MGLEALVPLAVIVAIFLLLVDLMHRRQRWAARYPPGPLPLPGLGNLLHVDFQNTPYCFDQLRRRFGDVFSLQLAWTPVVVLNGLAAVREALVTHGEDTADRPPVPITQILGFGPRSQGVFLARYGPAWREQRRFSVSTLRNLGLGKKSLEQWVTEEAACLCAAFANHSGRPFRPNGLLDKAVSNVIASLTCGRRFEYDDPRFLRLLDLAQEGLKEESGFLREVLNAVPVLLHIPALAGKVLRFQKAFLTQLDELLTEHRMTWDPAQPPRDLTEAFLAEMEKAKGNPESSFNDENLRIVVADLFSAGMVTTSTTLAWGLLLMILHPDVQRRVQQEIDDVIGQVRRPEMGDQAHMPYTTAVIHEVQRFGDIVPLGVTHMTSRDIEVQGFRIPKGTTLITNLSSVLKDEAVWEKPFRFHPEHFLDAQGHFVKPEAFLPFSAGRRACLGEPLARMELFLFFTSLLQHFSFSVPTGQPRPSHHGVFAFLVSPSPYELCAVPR
From the text: as §1

In series [5] the target is T1, human cytochrome P450 1A2 (Homo sapiens, UniProt P05177).
T1 sequence (P05177 1-516): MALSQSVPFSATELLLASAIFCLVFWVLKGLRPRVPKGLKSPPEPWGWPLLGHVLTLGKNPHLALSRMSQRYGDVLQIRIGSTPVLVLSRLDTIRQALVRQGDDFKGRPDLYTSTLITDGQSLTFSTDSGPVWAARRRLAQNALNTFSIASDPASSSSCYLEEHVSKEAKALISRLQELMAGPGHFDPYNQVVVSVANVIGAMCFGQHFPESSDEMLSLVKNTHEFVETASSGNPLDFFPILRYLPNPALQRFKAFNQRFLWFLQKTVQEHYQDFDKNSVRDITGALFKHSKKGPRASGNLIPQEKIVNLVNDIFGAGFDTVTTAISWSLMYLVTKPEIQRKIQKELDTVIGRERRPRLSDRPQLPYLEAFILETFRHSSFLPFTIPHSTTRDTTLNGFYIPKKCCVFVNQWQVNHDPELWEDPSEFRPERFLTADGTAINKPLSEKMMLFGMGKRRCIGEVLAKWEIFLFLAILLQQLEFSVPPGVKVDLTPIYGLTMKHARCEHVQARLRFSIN
Description: Inhibition of human cytochrome P450 1A2. Format: in vitro ADME. The conditions noted are these: for Percentage inhibition of 1A2: 10 μM; for IC50: mean value of two measurements.
From the text: as §1

Another series has as its target T2, human 11β-HSD1 (Homo sapiens, UniProt P28845).
T2 construct: expressed in transfected cells; host or cells: HEK-293 (human), stably transfected
Description: 11β-HSD1 inhibition, human HEK-293 cell based assay (SPA). The conditions noted are these: for IC50: HEK-293 cells stably transfected with HSD11B1, mean of 3 measurements. The method, then: 11β-HSD1 inhibition was measured in intact human HEK-293 cells to reveal the true inhibitory activity. Differences in observed effects for different compounds may reflect combinatorial factors including the ability to penetrate the cell membrane, the stability within the cell and the binding ability to the enzyme.
The cell-based assays were conducted on the human HEK-293 cell line stably transfected with the HSD11B1 gene.[28] 11β-HSD1 activity was determined by measuring the amount of tritiated product formed using a scintillation proximity assay (SPA).
Cells were incubated in 96-well micro-plates in the presence of tritiated cortisone substrate and the assay plates contained internal high and low controls to allow calculation of percentage inhibition. Each well of a 96-well culture plate was seeded with human 11β-HSD1 overexpressed HEK293 cells in 100 μL medium. When the cells were 80% confluent, the medium was removed from each well then 100 μL of fresh, serum-free, medium containing ^3H-cortisone (22 nM) and test compound in 1% DMSO was added. The control wells were also dispensed. […] The plate was incubated at 37 °C for 2 h, after which 50 μL of medium was removed from each well and transferred to a microplate containing 100 μL of a pre-incubated mixture of anti-cortisol antibody and SPA bead. The mixture was incubated with gentle shaking until equilibrium was reached, before transferring to a scintillation counter to establish the enzyme activity in each sample.
The compounds were initially tested at a concentration of 1 μM. Those compounds showing over 70% inhibition of 11β-HSD1 at 1 μM were subjected to an IC50 measurement. A Merck compound 544 was used as the reference compound in the assay (IC50 = 50 ± 20 nM).[19] The IC50 values are reported as the mean value of 3 measurements with variance less than 20%. IC50 values were calculated from the dose-response curve using Microsoft Excel add-in XLfit with a Four Parameter Logistic nonlinear regression model.

Series [6] is described as follows: Stability in incubation with human liver microsomes. Format: in vitro ADME. The note with it: 37 °C, NADPH; for half-life: 40 min. The method, then: Potent inhibitors (3 and 15) were incubated at 37 °C for 40 min with human liver microsomes in the presence of the cofactor NADPH to evaluate their stability under such conditions. The remaining parent compound was measured using a HPLC method.

Series [7] relates to key human cytochrome P450 enzymes. The series is described as follows: Inhibition of the key human cytochrome P450 enzymes (panel, summary statements). The series is classed as in vitro ADME.
From the text: as §1

Series [8] concerns the target human cytochrome P450 3A4-BQ (Homo sapiens, UniProt P08684). The series is described as follows: Inhibition of human cytochrome P450 3A4-BQ (7-benzyloxyquinoline). The series is classed as in vitro ADME. The note with it: for Percentage inhibition of 3A4-BQ: 10 μM; for IC50: mean value of two measurements.
From the text: as §1

The next series has as its system Caco-2 cell model. Description: Membrane permeability, Caco-2 cell model. The conditions noted are these: Caco-2, 20 μM. Format: in vitro ADME. The text has this: (§2) Compound 3 was studied for its membrane permeability using the Caco-2 cell model.
Series [9] in a line: Membrane permeability, Caco-2 cell model. The series is classed as in vitro ADME. The conditions noted are these: human, Caco-2; apical to basolateral, 20 μM.
From the text: as §2
(Passage across Caco-2 layers is used to estimate intestinal permeability.)

Series [10] relates to CYP 2CA (so in the source), CYP3A4. Description: Inhibition of the key human cytochrome P450 enzymes (panel, summary statements). The series is classed as in vitro ADME. The conditions noted are these: human; 2CA, 3A4-BFC and 3A4-BQ.
From the text: as §1

Sequence of human cytochrome P450 3A4-BQ (P08684 whole entry): as the sequence (P08684 whole entry) above
Sequence of human cytochrome P450 2C19 (P33261 whole entry): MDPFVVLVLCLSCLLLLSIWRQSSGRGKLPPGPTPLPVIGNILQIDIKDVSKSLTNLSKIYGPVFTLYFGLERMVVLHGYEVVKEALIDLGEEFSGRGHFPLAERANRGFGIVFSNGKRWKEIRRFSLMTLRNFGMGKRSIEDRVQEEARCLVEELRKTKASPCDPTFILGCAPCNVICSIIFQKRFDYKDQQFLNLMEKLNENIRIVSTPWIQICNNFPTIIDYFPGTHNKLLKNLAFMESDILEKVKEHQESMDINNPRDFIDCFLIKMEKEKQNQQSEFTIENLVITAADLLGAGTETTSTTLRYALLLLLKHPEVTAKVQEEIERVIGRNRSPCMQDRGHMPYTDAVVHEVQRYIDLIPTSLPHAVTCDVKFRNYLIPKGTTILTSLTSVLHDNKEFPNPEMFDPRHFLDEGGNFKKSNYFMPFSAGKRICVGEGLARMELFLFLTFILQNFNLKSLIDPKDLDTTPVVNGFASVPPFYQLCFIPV
T2 sequence (P28845 whole entry): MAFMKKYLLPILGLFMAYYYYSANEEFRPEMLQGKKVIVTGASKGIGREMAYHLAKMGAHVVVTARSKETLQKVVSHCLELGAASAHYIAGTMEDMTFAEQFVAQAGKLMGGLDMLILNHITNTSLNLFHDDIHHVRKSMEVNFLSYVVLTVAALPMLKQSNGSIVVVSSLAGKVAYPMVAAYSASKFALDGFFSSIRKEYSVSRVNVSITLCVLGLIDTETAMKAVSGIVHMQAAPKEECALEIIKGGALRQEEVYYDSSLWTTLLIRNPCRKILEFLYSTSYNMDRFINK

As to `CN(Cc1cccs1)C(=O)C12CC3CC(CC(C3)C1)C2` [Compound 3], in series [1], the “Percentage inhibition of 2C19” value is listed as 13% ^a. For the same compound, the “Percentage inhibition of 2C9” value in [2] amounted to 62% ^a. Besides, the IC50 in [3] amounted to 10 µM. Also, in series [4], the “Percentage inhibition of 2D6” value turned out to be 2% ^a. Also, in series [5], the “Percentage inhibition of 1A2” value was 6% ^a. This compound also gave an IC50 at human 11β-HSD1 of 0.229 µM. In [6], the half-life fell in the range of 1 to 1.17 h and the “stability with human liver microsomes (in words)” value was “moderately stable”. Moreover, the “activity against 2C9 and 3A4-BFC (in words)” value in series [7] (2C9 and 3A4-BFC) is on record as “weak activity”. Further, in series [8], the “Percentage inhibition of 3A4-BQ” value turned out to be 34% ^a. The “permeability (in words)” value in the series on Caco-2 cell model was “high permeability”. For the same compound, the Papp A→B at 20 μM in [9] stood at 33 ×10⁻⁶ cm/s.
Consider `CN(Cc1cccs1)C(=O)CC12CC3CC(CC(C3)C1)C2` [Compound 4, 2-(Adamantan-1-yl)-N-methyl-N-(thiophen-2-ylmethyl)acetamide], for which the “Percentage inhibition of 2C19” value in series [1] was determined as 80% ^a. For the same compound, in [2], the “Percentage inhibition of 2C9” value is reported as 49% ^a. Besides, the results for the IC50 (in [3]; against human 11β-HSD1) were 0.15 µM and 0.308 µM, respectively. Also, the “Percentage inhibition of 2D6” value in [4] amounted to 9% ^a. In addition, the “Percentage inhibition of 1A2” value in [5] stood at 1% ^a. Further, the “Percentage inhibition of 3A4-BQ” value in series [8] is 66% ^a.
For the compound `CN(Cc1cccn1C)C(=O)C12CC3CC(CC(C3)C1)C2` [Compound 15, N-Methyl-N-((1-methyl-1H-pyrrol-2-yl)-methyl)adamantane-1-carboxamide], the IC50 in [1] was more than 100 µM; in series [2], more than 100 µM; in [3], 19 µM; in [4], more than 100 µM; in series [5] it was more than 100 µM; against human 11β-HSD1, 0.114 µM. Also, it took 18 µM to reach half-maximal inhibition in [8] (IC50). At human 11β-HSD1 (N-methyl amide vs NH analogue 16), the “fold more potent than compound 16” value is listed as “over 15 times”. Also, the half-life in [6] was 1 to 1.17 h. Besides, in series [6], the “stability with human liver microsomes (in words)” value is on record as “moderate stability; also recorded: moderately stable; also recorded: relatively stable”. In series [7] (1A2, 2C9, 2C19, 2D6, 3A4-BFC, 3A4-BQ), the “inhibition of the key human cytochrome P450 enzymes (in words)” value is listed as “weak inhibitory activity; also recorded: very weak inhibition; also recorded: very weak inhibitory activity”.
With `CN(Cc1cccs1)C(=O)C12CC3CC(CC1C3)C2` [Compound 39, N-Methyl-N-(thiophen-2-ylmethyl)-tRicyclo[3.3.1.0^(3,7)]nonane-3-carboxamide], the melting point was in the range of 87 to 88.5 °C. This compound displayed an IC50 at human 11β-HSD1 of 1.08 µM.
On to `Cc1ccc(C2(C(=O)N(C)Cc3cccs3)CC2)cc1` [Compound 41, N-Methyl-N-(thiophen-2-ylmethyl)-1-p-tolylcyclopropanecarboxamide], for which the IC50 in series [1] is more than 100 µM; in [2] it was 4.5 µM; in series [3] it was 7.3 µM; in [4], 72 µM; in series [5], more than 100 µM; at human 11β-HSD1, 0.28 µM. Besides, the IC50 in series [10] is 1.6 to 7.3 µM; in [8] it was 1.6 µM.
In turn, `CN(Cc1cccs1)C(=O)C1(c2ccc(Cl)cc2)CCCC1` [Compound 44, 1-(4-Chlorophenyl)-N-methyl-N-(thio-phen-2-ylmethyl)cyclopentanecarbox-amide] returned a melting point of 58 to 60 °C. The compound further yielded a concentration for half-maximal inhibition (IC50) against human 11β-HSD1 of 2.2 µM.
